This experiment concerns the target T1, bovine serum albumin (BSA) (Bos taurus, UniProt P02769).
T1 construct: gene ALB; BSA fraction V (Sigma), 583 amino acid residues
The experiment in a line: intrinsic fluorescence quenching titration (static; Kb at […] K, pH […], n = […]), supported by UV-vis, CD and FRET. The format is binding. As to conditions: read-out: Kb (10^6 M^-1) (converted).

Each structure is given as a SMILES string.

The source of these data is article PMC3742238, “Characterization of the Interaction between Eupatorin and Bovine Serum Albumin by Spectroscopic and Molecular Modeling Methods” (International Journal of Molecular Sciences, 2013).

T1 sequence (P02769 25-607): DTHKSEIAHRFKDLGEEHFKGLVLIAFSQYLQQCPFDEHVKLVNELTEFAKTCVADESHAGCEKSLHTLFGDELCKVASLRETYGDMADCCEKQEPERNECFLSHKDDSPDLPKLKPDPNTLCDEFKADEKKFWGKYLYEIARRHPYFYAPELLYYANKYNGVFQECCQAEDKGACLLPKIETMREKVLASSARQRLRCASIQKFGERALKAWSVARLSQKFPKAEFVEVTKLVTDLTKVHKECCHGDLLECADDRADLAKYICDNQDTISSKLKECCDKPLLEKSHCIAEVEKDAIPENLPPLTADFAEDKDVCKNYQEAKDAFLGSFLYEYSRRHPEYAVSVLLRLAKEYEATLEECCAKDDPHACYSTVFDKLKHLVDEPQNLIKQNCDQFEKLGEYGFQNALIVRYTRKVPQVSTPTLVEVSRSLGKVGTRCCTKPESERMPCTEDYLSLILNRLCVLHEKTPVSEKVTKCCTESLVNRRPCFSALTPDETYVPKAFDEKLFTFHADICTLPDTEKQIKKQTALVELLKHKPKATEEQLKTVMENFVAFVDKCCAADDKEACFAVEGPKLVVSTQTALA

As to `COc1ccc(-c2cc(=O)c3c(O)c(OC)c(OC)cc3o2)cc1O` [eupatorin], the Kd was 813 nM.
